# Test results published in article PMC9090415, “Discovery of small molecule inhibitors of Plasmodium falciparum apicoplast DNA polymerase” (Journal of Enzyme Inhibition and Medicinal Chemistry, 2022).
# Biological target: P. falciparum apicoplast DNA polymerase (Pf-apPOL) (Plasmodium falciparum, UniProt Q8ILY1)
# Test: Fluorescence-based high-throughput DNA polymerase assay (molecular beacon), primary screen and dose-response
# Format: biochemical
# How it was run: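 Single-point screening used 10 µM compound with 20 nM polymerase, 20 nM hairpin substrate and 6 µM dNTPs for 90 min at 25 °C. Confirmatory titrations (2.5–80 µM) followed fluorescence at three times, and IC50 was derived from a fit including a cooperativity term n.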
# [1] = primary screen value of the 186 hits; unit not given; 90 min, 10 µM
# Sequence of P. falciparum apicoplast DNA polymerase (Pf-apPOL) (Q8ILY1 entry or part of it): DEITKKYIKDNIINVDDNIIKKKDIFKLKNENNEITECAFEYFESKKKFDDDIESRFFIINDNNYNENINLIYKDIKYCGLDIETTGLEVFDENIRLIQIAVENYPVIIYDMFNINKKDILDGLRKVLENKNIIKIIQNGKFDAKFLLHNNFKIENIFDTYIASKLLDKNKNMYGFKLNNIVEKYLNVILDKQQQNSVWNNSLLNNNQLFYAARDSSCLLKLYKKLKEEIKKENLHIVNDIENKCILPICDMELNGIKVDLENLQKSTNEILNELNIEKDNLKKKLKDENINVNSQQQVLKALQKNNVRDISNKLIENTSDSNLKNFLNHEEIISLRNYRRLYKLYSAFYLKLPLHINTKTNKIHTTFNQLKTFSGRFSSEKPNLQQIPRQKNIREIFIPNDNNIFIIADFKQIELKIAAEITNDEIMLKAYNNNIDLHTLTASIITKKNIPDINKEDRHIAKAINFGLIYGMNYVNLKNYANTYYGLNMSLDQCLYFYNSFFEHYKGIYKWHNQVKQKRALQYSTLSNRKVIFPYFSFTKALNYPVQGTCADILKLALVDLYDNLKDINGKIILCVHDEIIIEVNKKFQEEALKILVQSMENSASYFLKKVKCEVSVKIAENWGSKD
compound,measurement,setting,value
COc1cc(/C=C2\S/C(=N/C(C)=O)NC2=O)cc(Br)c1OCC(=O)O [KU0057841],DNA Pol,"'DNA Pol'; screening value, unit not given; 90 min, 10 µM",27
same,% inhibition Apo pol 10',DRC-1; 10'; concentration 2.5,4.866%
same,% inhibition Apo pol 10',DRC-1; 10'; concentration 5,4.738%
same,% inhibition Apo pol 10',DRC-1; 10'; concentration 10,17.12%
same,% inhibition Apo pol 10',DRC-1; 10'; concentration 20,35.9073%
same,% inhibition Apo pol 10',DRC-1; 10'; concentration 40,63.4189%
same,% inhibition Apo pol 10',DRC-1; 10'; concentration 80,83.5237%
same,% inhibition Apol 90',DRC-1; 90'; concentration 2.5,3.601%
same,% inhibition Apol 90',DRC-1; 90'; concentration 5,-2.326%
same,% inhibition Apol 90',DRC-1; 90'; concentration 10,5.395%
same,% inhibition Apol 90',DRC-1; 90'; concentration 20,16.7076%
same,% inhibition Apol 90',DRC-1; 90'; concentration 40,36.5505%
same,% inhibition Apol 90',DRC-1; 90'; concentration 80,62.7524%
same,% inhibition apPOL 180',DRC-1; 180'; concentration 2.5,1.284%
same,% inhibition apPOL 180',DRC-1; 180'; concentration 5,-7.5244%
same,% inhibition apPOL 180',DRC-1; 180'; concentration 10,-2.004%
same,% inhibition apPOL 180',DRC-1; 180'; concentration 20,5.338%
same,% inhibition apPOL 180',DRC-1; 180'; concentration 40,19.6206%
same,% inhibition apPOL 180',DRC-1; 180'; concentration 80,44.2464%
same,% inhibition Apo pol 5',"DRC-2, 5', concentration 2.5",2.71%
same,% inhibition Apo pol 5',"DRC-2, 5', concentration 5",4.4%
same,% inhibition Apo pol 5',"DRC-2, 5', concentration 10",17%
same,% inhibition Apo pol 5',"DRC-2, 5', concentration 20",29%
same,% inhibition Apo pol 5',"DRC-2, 5', concentration 40",52%
same,% inhibition Apo pol 5',"DRC-2, 5', concentration 80",60%
same,% inhibition Apol 40',"DRC-2, 40', concentration 2.5",1.51%
same,% inhibition Apol 40',"DRC-2, 40', concentration 5",3.29%
same,% inhibition Apol 40',"DRC-2, 40', concentration 10",13%
same,% inhibition Apol 40',"DRC-2, 40', concentration 20",24%
same,% inhibition Apol 40',"DRC-2, 40', concentration 40",47%
same,% inhibition Apol 40',"DRC-2, 40', concentration 80",64%
same,% inhibition ApPOL 90',"DRC-2, 90', concentration 2.5",1.23%
same,% inhibition ApPOL 90',"DRC-2, 90', concentration 5",2.28%
same,% inhibition ApPOL 90',"DRC-2, 90', concentration 10",9.51%
same,% inhibition ApPOL 90',"DRC-2, 90', concentration 20",20%
same,% inhibition ApPOL 90',"DRC-2, 90', concentration 40",41%
same,% inhibition ApPOL 90',"DRC-2, 90', concentration 80",60%
same,% inhibition apPOL 180',"DRC-2, 180', concentration 2.5",1.62%
same,% inhibition apPOL 180',"DRC-2, 180', concentration 5",-1.41%
same,% inhibition apPOL 180',"DRC-2, 180', concentration 10",4%
same,% inhibition apPOL 180',"DRC-2, 180', concentration 20",14%
same,% inhibition apPOL 180',"DRC-2, 180', concentration 40",28%
same,% inhibition apPOL 180',"DRC-2, 180', concentration 80",49%
same,% inhibition Apo pol 5',conc 80 (unit not given); 5'; DRC-2,60%
same,% inhibition ApPOL 90',conc 80 (unit not given); 90'; DRC-2,60%
same,DNA Pol,"primary screen hit value, DNA Pol (186 hits); 90 min, 10 µM",27
COc1ccc(C=C2Oc3c(ccc4c3CN(Cc3ccco3)CO4)C2=O)c(OC)c1 [KU0199404],% inhibition Apo pol 10',DRC-1; concentration 2.5; 10',1.778%
same,% inhibition Apol 90',DRC-1; concentration 2.5; 90',6.394%
same,% inhibition apPOL 180',DRC-1; concentration 2.5; 180',14.4773%
same,% inhibition Apo pol 10',DRC-1; concentration 5; 10',2.359%
same,% inhibition Apol 90',DRC-1; concentration 5; 90',10.7843%
same,% inhibition apPOL 180',DRC-1; concentration 5; 180',25.2477%
same,% inhibition Apo pol 10',DRC-1; concentration 10; 10',17.8134%
same,% inhibition Apol 90',DRC-1; concentration 10; 90',29.7292%
same,% inhibition apPOL 180',DRC-1; concentration 10; 180',48.7066%
same,% inhibition Apo pol 10',DRC-1; concentration 20; 10',37.7158%
same,% inhibition Apol 90',DRC-1; concentration 20; 90',50.8732%
same,% inhibition apPOL 180',DRC-1; concentration 20; 180',69.9557%
same,% inhibition Apo pol 10',DRC-1; concentration 40; 10',58.5562%
same,% inhibition Apol 90',DRC-1; concentration 40; 90',70.9348%
same,% inhibition apPOL 180',DRC-1; concentration 40; 180',86.2262%
same,% inhibition Apo pol 10',DRC-1; concentration 80 (unit not given); 10',73.935%
same,% inhibition Apol 90',DRC-1; concentration 80; 90',78.9077%
same,% inhibition apPOL 180',DRC-1; concentration 80; 180',90.2103%
same,% inhibition Apo pol 5',DRC-2; 5'; concentration 10,33%
same,% inhibition Apo pol 5',DRC-2; 5'; concentration 80,49%
same,% inhibition Apol 40',DRC-2; 40'; concentration 10,33%
same,% inhibition Apol 40',DRC-2; 40'; concentration 20,49%
same,% inhibition Apo pol 5',DRC-2; concentration 2.5; 5',5%
same,% inhibition Apol 40',DRC-2; concentration 2.5; 40',1.45%
same,% inhibition ApPOL 90',DRC-2; concentration 2.5; 90',-0.679%
same,% inhibition apPOL 180',DRC-2; concentration 2.5; 180',-6%
same,% inhibition Apo pol 5',DRC-2; concentration 5; 5',12%
same,% inhibition Apol 40',DRC-2; concentration 5; 40',3.41%
same,% inhibition ApPOL 90',DRC-2; concentration 5; 90',-6.4%
same,% inhibition apPOL 180',DRC-2; concentration 5; 180',-80%
same,% inhibition Apo pol 5',DRC-2; concentration 10; 5',33%
same,% inhibition Apol 40',DRC-2; concentration 10; 40',33%
same,% inhibition ApPOL 90',DRC-2; concentration 10; 90',30%
same,% inhibition apPOL 180',DRC-2; concentration 10; 180',17%
same,% inhibition Apo pol 5',DRC-2; concentration 20; 5',46%
same,% inhibition Apol 40',DRC-2; concentration 20; 40',49%
same,% inhibition ApPOL 90',DRC-2; concentration 20; 90',45%
same,% inhibition apPOL 180',DRC-2; concentration 20; 180',31%
same,% inhibition Apo pol 5',DRC-2; concentration 40; 5',52%
same,% inhibition Apol 40',DRC-2; concentration 40; 40',58%
same,% inhibition ApPOL 90',DRC-2; concentration 40; 90',56%
same,% inhibition apPOL 180',DRC-2; concentration 40; 180',47%
same,% inhibition Apo pol 5',DRC-2; concentration 80; 5',49%
same,% inhibition Apol 40',DRC-2; concentration 80; 40',51%
same,% inhibition ApPOL 90',DRC-2; concentration 80; 90',48%
same,% inhibition apPOL 180',DRC-2; concentration 80; 180',43%
same,DNA Pol,[1],29
same,DNA Pol,"primary screen value; head prints only 'DNA Pol'; 90 min, 10 µM",29
CC(=O)Nc1cc(C(=O)NC(C)C)c2ccc(C)nc2c1 [KU0206312],% inhibition Apo pol 10',DRC-1; 10'; concentration 2.5,-0.09953%
same,% inhibition Apo pol 10',DRC-1; 10'; concentration 5,7.573%
same,% inhibition Apo pol 10',DRC-1; 10'; concentration 10,27.7087%
same,% inhibition Apo pol 10',DRC-1; 10'; concentration 20,47.6334%
same,% inhibition Apo pol 10',DRC-1; 10'; concentration 40,73.4276%
same,% inhibition Apo pol 10',DRC-1; 10'; concentration 80,85.3418%
same,% inhibition Apol 90',DRC-1; 90'; concentration 2.5,-3.317%
same,% inhibition Apol 90',DRC-1; 90'; concentration 5,-1.224%
same,% inhibition Apol 90',DRC-1; 90'; concentration 10,13.9494%
same,% inhibition Apol 90',DRC-1; 90'; concentration 20,30.2375%
same,% inhibition Apol 90',DRC-1; 90'; concentration 40,59.3171%
same,% inhibition Apol 90',DRC-1; 90'; concentration 80,84.495%
same,% inhibition apPOL 180',DRC-1; 180'; concentration 2.5,-3.391%
same,% inhibition apPOL 180',DRC-1; 180'; concentration 5,-3.035%
same,% inhibition apPOL 180',DRC-1; 180'; concentration 10,6.928%
same,% inhibition apPOL 180',DRC-1; 180'; concentration 20,18.5029%
same,% inhibition apPOL 180',DRC-1; 180'; concentration 40,47.7981%
same,% inhibition apPOL 180',DRC-1; 180'; concentration 80,83.4711%
same,% inhibition Apo pol 5',DRC-2; 5'; concentration 2.5,8%
same,% inhibition Apo pol 5',DRC-2; 5'; concentration 5,15%
same,% inhibition Apo pol 5',DRC-2; 5'; concentration 10,35%
same,% inhibition Apo pol 5',DRC-2; 5'; concentration 20,45%
same,% inhibition Apo pol 5',DRC-2; 5'; concentration 40,47%
same,% inhibition Apo pol 5',DRC-2; 5'; concentration 80,43%
same,% inhibition Apol 40',DRC-2; 40'; concentration 2.5,8%
same,% inhibition Apol 40',DRC-2; 40'; concentration 5,13%
same,% inhibition Apol 40',DRC-2; 40'; concentration 10,34%
same,% inhibition Apol 40',DRC-2; 40'; concentration 20,51%
same,% inhibition Apol 40',DRC-2; 40'; concentration 40,65%
same,% inhibition Apol 40',DRC-2; 40'; concentration 80,67%
same,% inhibition ApPOL 90',DRC-2; 90'; concentration 2.5,6.64%
same,% inhibition ApPOL 90',DRC-2; 90'; concentration 5,11%
same,% inhibition ApPOL 90',DRC-2; 90'; concentration 10,31%
same,% inhibition ApPOL 90',DRC-2; 90'; concentration 20,50%
same,% inhibition ApPOL 90',DRC-2; 90'; concentration 40,68%
same,% inhibition ApPOL 90',DRC-2; 90'; concentration 80,73%
same,% inhibition apPOL 180',DRC-2; 180'; concentration 2.5,2%
same,% inhibition apPOL 180',DRC-2; 180'; concentration 5,5%
same,% inhibition apPOL 180',DRC-2; 180'; concentration 10,20%
same,% inhibition apPOL 180',DRC-2; 180'; concentration 20,41%
same,% inhibition apPOL 180',DRC-2; 180'; concentration 40,67%
same,% inhibition apPOL 180',DRC-2; 180'; concentration 80,78%
same,% inhibition Apo pol 5',conc. 2.5; 5'; DRC-2,8%
same,% inhibition Apol 40',conc. 2.5; 40'; DRC-2,8%
same,% inhibition apPOL 180',conc. 40; 180'; DRC-2,67%
same,% inhibition Apol 40',conc. 80; 40'; DRC-2,67%
same,DNA Pol,"primary screen value by plate and well; 90 min, 10 µM",32
same,DNA Pol,[1],32
CCCCOC(=O)CCCCCN1C(=O)C(=Cc2ccc(OC)cc2)SC1=S [Molecule 75],IC50,"supplemental file 2, sheet IC50 nontoxic compounds; Pf-apPOL",56.7 µM
